Measured values from patent US6632823B1, “Substituted pyridine compounds useful as modulators of acetylcholine receptors” (Merck & Co., Inc., priority 1997, dated 2003).
Where a name gives a salt, the structure may show the parent alone.

Row | melting point | SMILES
1 | 204 to 206 °C | CN1C2CCC1CC(SCc1ccccn1)C2 (stereo not drawn) (as salt: hydrochloride)
2 | 201 to 205 °C | CN1C2CCC1CC(Sc1ccccn1)C2 (stereo not drawn) (as salt: hydrochloride) [3-[Endo-(2-Pyridine)thio]-8-methyl-8-azabbicyclo[3.2.1]octane]
3 | 186.5 to 187.5 °C | CN1CCCC1CCSc1ccncc1 (stereo not drawn) (as salt: hydrochloride) [A = C, B = N, R1, R2, R4, R5 = H, D = absent, E = —S—, G = —] [2-[2-(4-Pyridine)thioethyl]-1-methylpyrrolidine]
